Converted amounts (≈) assume the structure as drawn. Read-outs that look alike come from different tables or passages of the source.

Holding throughout (format): physicochemical
A short description of data set [1]: Chemical stability of aspirin in ASA/Leucine formulations by RP-HPLC after storage. The settings on record: reference standard, no storage condition. As for the experimental part: Chemical stability of aspirin in the formulations were tested by RP-HPLC before and after the formulations were exposed to various storage conditions.
Data set [2] in a line: Potency and purity by RP-HPLC of aspirin/leucine formulations. The conditions noted are these: before storage. On the procedure: The properties of the ASA formulation were evaluated, including geometric particle size distribution (e.g., using laser diffraction such as the Malvern Dry Method); particle morphology (e.g., using scanning electron microscopy (SEM)); ID/Assay and purity (e.g., by HPLC); X-ray powder diffraction (XRPD); and aerosol properties by NGI.

The nature of data set [3]: ASA and L-leucine absolute solubility in EtOH/water blends. On the procedure: To define the absolute solubility of ASA and L-leucine in a variety of solvent blends, solvent blends were evaluated for solubility of ASA and L-leucine by visual confirmation. As used in this example, unless specified otherwise, leucine is L-leucine.
The nature of data set [4]: ASA and L-leucine mixing solubility. The settings on record: for precipitation after mixing: 5 wt. % total solids, on the order of minutes. As for the experimental part: The objective is to apply absolute solubility of ASA and L-Leu to a mixing study to determine if a spray drying approach is feasible. ASA and L-leucine was independently dissolved in preferred solvent: ASA in EtOH, and L-leucine in a sulfuric acid solution (pH 4.0) (which may increase L-leucine solubility in water). Proposed formulations were evaluated at a final total solids of 7 wt. % and 5 wt. %. In one embodiment, solvent ratio was 25/75 EtOH/Water. Precipitation of components was analyzed visually.

The nature of data set [5]: ASA in ethanol spray solution stability evaluation. The settings on record: for % ASA Purity / % SA: 9 wt % ASA in ethanol. As for the experimental part: ASA degrades to salicylic acid (SA) as a function of time and temperature due to dissolution. Initial and cold 1 day solutions contained less than 0.5% SA.
9 wt % ASA was added to ethanol with constant stirring to stainless steel vessels. Samples were either stirred at ambient room temperature (approx. 22° C.) or 4° C. and sampled at 1, 3 and 6 days (Table 34).

Data set [6] is described as follows: Anti-solvent evaluation of 5% w/w acetylsalicylic acid suspensions. The settings on record: 5% w/w suspension, room temperature. On the procedure:
After considering a number of factors in the end it was determined that only n-heptane and toluene fulfilled all the requirements, and therefore these were selected for further evaluation. Suspensions of acetylsalicylic acid at 5% w/w were prepared with the various anti-solvents, by charging the required amount of anti-solvent, charging the required amount of acetylsalicylic acid, and then stirring until a homogeneous suspension was obtained. The suspensions were qualitatively evaluated at room temperature and then filtered using a 0.45 μm membrane, which was then placed in an oven and dried at 60° C. until the solvent had completely evaporated. A quantitative analysis was performed on the residue that remained in the membrane by weighing the membrane before and after the test.

Turning to `CC(=O)Oc1ccccc1C(=O)O` [ASA Reference Standard], in data set [1], the “ASA Purity (%)” value turned out to be 99.76% and the “SA Impurity (%)” value worked out at 0.24%.
Turning to `CC(=O)Oc1ccccc1C(=O)O` [ASA Standard], in data set [2], the “ASA Purity” value amounted to 99.76 ± 0.11% and the “SA Purity” value was found to be 0.24 ± 0.11%.
Broadly, the solubility is the concentration that dissolves in the medium under given conditions. Consider `CC(C)C[C@H](N)C(=O)O` [L-Leucine, L-leucine], for which the solubility in data set [3] (Neutral, EtOH/Water 0/100 (v/v), read-out: L-Leucine solubility) came out at 10000 µg/mL (≈ 76.2 mM); in data set [3] (aqueous buffer, pH 3, EtOH/Water 0/100 (v/v), read-out: L-Leucine solubility) it was 17000 µg/mL (≈ 130 mM); in data set [3] (aqueous with cosolvent or surfactant or cyclodextrin, Neutral, EtOH/Water 10/90 (v/v), read-out: L-Leucine solubility), 9000 µg/mL (≈ 68.6 mM); in data set [3] (aqueous with cosolvent or surfactant or cyclodextrin, Neutral, EtOH/Water 25/75 (v/v), read-out: L-Leucine solubility) it was 400 µg/mL (≈ 3.05 mM); in data set [3] (aqueous with cosolvent or surfactant or cyclodextrin, Neutral, EtOH/Water 50/50 (v/v), read-out: L-Leucine solubility), 300 µg/mL (≈ 2.29 mM); in data set [3] (aqueous with cosolvent or surfactant or cyclodextrin, pH 3, EtOH/Water 10/90 (v/v), read-out: L-Leucine solubility), 11000 µg/mL (≈ 83.9 mM). In addition, the solubility in data set [3] (aqueous with cosolvent or surfactant or cyclodextrin, pH 3, EtOH/Water 50/50 (v/v), read-out: L-Leucine solubility) was found to be 1000 µg/mL (≈ 7.62 mM); in data set [3] (organic solvent or mixture, Neutral, EtOH/Water 75/25 (v/v), read-out: L-Leucine solubility), 200 µg/mL (≈ 1.52 mM). In addition, the L-Leucine solubility in data set [3] (Neutral, EtOH/Water 25/75 (v/v)) is 0.04 wt. %; in data set [3] (Neutral, EtOH/Water 50/50 (v/v)) it was 0.03 wt. %; in data set [3] (Neutral, EtOH/Water 75/25 (v/v)), 0.02 wt. %; in data set [3] (Neutral, EtOH/Water 90/10 (v/v)), “Insouble”; in data set [3] (pH 3, EtOH/Water 0/100 (v/v)), 1.7 wt. %; in data set [3] (pH 3, EtOH/Water 10/90 (v/v)), 1.0 wt. %. The same molecule gave a L-Leucine solubility in data set [3] (pH 3, EtOH/Water 50/50 (v/v)) of 0.1 wt. %. In data set [4], the precipitation after mixing result is given as “no evidence of precipitation”. The “time to precipitation out of solution” value in data set [4] (7 wt. % solids, 85/15 ASA/L-leucine formulation, after mixing) was “approximately 60 seconds”.
Turning to `CC(=O)Oc1ccccc1C(=O)O` [acetylsalicylic acid], the “% ASA Purity” value in data set [5] (Ambient Conditions, 1 Day) is recorded as 98.0%; in data set [5] (Ambient Conditions, 3 Day), 90.5%; in data set [5] (Ambient Conditions, 6 Day), 90.5%; in data set [5] (Ambient Conditions, Initial), 99.9%; in data set [5] (Controlled 4° C., 1 Day), 99.1%; in data set [5] (Controlled 4° C., 3 Day), 97.5%. In addition, the “% ASA Purity” value in data set [5] (Controlled 4° C., 6 Day) came out at 96.7%; in data set [5] (Controlled 4° C., Initial), 99.9%. Moreover, the “% SA” value is 1.7% in data set [5] (Ambient Conditions, 1 Day); 7.5% in data set [5] (Ambient Conditions, 3 Day); 7.2% in data set [5] (Ambient Conditions, 6 Day); 0.1% in data set [5] (Ambient Conditions, Initial); 0.4% in data set [5] (Controlled 4° C., 1 Day); 2.0% in data set [5] (Controlled 4° C., 3 Day). In addition, the “% SA” value in data set [5] (Controlled 4° C., 6 Day) amounted to 2.3%; in data set [5] (Controlled 4° C., Initial) it was 0%. For the same molecule, the “SA content of spray solution” value in data set [5] (Initial and cold 1 day solutions) is on record as “less than 0.5%”. Besides, the ASA solubility was 7.5 wt. % in data set [3] (EtOH/Water 50/50 (v/v)), 17.4 wt. % in data set [3] (EtOH/Water 75/25 (v/v)), 21.4 wt. % in data set [3] (EtOH/Water 90/10 (v/v)) and “up to 5 wt. % total solids” in data set [3] (all solvent blends except 25/75 EtOH/water). Also, the solubility amounted to 72500 µg/mL (≈ 402 mM) in data set [3] (EtOH/Water 50/50 (v/v), aqueous with cosolvent or surfactant or cyclodextrin, read-out: ASA solubility); 118000 µg/mL (≈ 653 mM) in data set [3] (EtOH/Water 75/25 (v/v), organic solvent or mixture, read-out: ASA solubility); 220000 µg/mL (≈ 1220 mM) in data set [3] (EtOH/Water 90/10 (v/v), organic solvent or mixture, read-out: ASA solubility). For the same molecule, the entries for the “solubility behaviour in anti-solvent” value in data set [6] (n-heptane) and in data set [6] (toluene) were “phobic behavior” and “partially soluble”, respectively. In addition, in data set [4], the precipitation after mixing entry is “no evidence of precipitation”.

The values are drawn from patent US12144820B2, “Dry powder formulations for inhalation” (VECTURA INC., priority 2016, dated 2024).
